From PubChem BioAssay (NCI)
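Compound exposure: 48 hours, 5 concentrations, 96-well plates. At the GI50, growth is halved. TGI is the concentration that stops growth completely.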 Where a SMILES comes first, the peptide text is derived from it. [ ]: non-standard residue; d: D form. The star is where a group is joined. ξ: configuration not given here. X16 = COC1=CC(=O)N(C(=O)C(O*)C(C)C)C1Cc1ccccc1; ξNMe2Val = CC(C)C(C(=O)*)N(C)C; NMeV = CN[CH](C(=O)O)C(C)C

Experiments:
Assay in all cases: growth of human tumour cells (NCI), 48 h
RXF 393 renal = tested on: RXF 393 renal
PC-3 prostate = tested on: PC-3 prostate
MDA-N = tested on: MDA-N
DU-145 prostate = tested on: DU-145 prostate
LOX IMVI melanoma = tested on: LOX IMVI melanoma
SR leukemia = tested on: SR leukemia
HOP-18 NSCLC = tested on: HOP-18 NSCLC
XF 498 CNS = tested on: XF 498 CNS
SK-MEL-28 melanoma = tested on: SK-MEL-28 melanoma
KM20L2 colon = tested on: KM20L2 colon

| SMILES | TGI (RXF 393 renal) | TGI (PC-3 prostate) | TGI (MDA-N) | TGI (DU-145 prostate) | TGI (LOX IMVI melanoma) | TGI (SR leukemia) | TGI (HOP-18 NSCLC) | TGI (XF 498 CNS) | TGI (SK-MEL-28 melanoma) | TGI (KM20L2 colon) | GI50 (RXF 393 renal) | GI50 (HOP-18 NSCLC) | GI50 (XF 498 CNS) | GI50 (KM20L2 colon) | GI50 (LOX IMVI melanoma) | GI50 (PC-3 prostate) | GI50 (SK-MEL-28 melanoma) | GI50 (DU-145 prostate) | GI50 (SR leukemia) |
| --- | --- | --- | --- | --- | --- | --- | --- | --- | --- | --- | --- | --- | --- | --- | --- | --- | --- | --- | --- |
| COc1ccc2c(O)c3[n+](cc2c1OC)CCc1cc2c(cc1-3)OCO2 | 85.7 µM | > 100 µM | > 100 µM | > 100 µM | > 100 µM | > 100 µM | – | – | – | – | – | – | – | – | – | – | – | – | – |
| COc1ccc(C(=O)C2CC3(CCC2(O)c2ccc(OC)cc2)CC(=O)Nc2ccccc2C3=O)cc1 (centres undefined) | > 100 µM | > 100 µM | > 100 µM | > 100 µM | > 100 µM | > 100 µM | – | – | – | – | – | – | – | – | – | – | – | – | – |
| OCC(O)COc1ccc(Br)cc1 (centres undefined) | > 100 µM | – | – | – | > 100 µM | > 100 µM | > 100 µM | > 100 µM | > 100 µM | > 100 µM | – | – | – | – | – | – | – | – | – |
| Nc1cc2c(cc1[N+](=O)[O-])[nH]c1c(-c3ccccc3)nccc12 | 73.1 µM | – | – | – | 28.8 µM | – | 50.8 µM | > 100 µM | 87.3 µM | > 82.8 µM | – | – | – | – | – | – | – | – | – |
| COC1=CC(=O)N(C(=O)C(OC(=O)C2CCCN2C(=O)C2CCCN2C(=O)C(C(C)C)N(C)C(=O)C(NC(=O)C(C(C)C)N(C)C)C(C)C)C(C)C)C1Cc1ccccc1 (centres undefined) (ξNMe2Val-V[NMeV]PP-X16; configuration not given here) | – | – | 0.000275 µM | 0.00455 µM | > 4 µM | – | > 4 µM | – | 0.00681 µM | – | < 0.0004 µM | > 4 µM | < 0.0004 µM | < 0.0004 µM | < 0.0004 µM | – | – | – | – |
| Cc1ccc(N=Nc2c(O)c3ccccc3[nH]c2=O)c(S(=O)(=O)N(C)C)c1 | > 100 µM | > 100 µM | > 100 µM | > 100 µM | > 100 µM | – | – | – | > 100 µM | – | – | – | – | – | – | – | – | – | – |
| Cc1ccc(OP2(=O)Oc3ccc4ccccc4c3CN2c2ccc(Cl)cc2)cc1C (centres undefined) | > 100 µM | – | – | – | > 100 µM | – | > 100 µM | > 100 µM | > 100 µM | > 100 µM | – | – | – | – | – | – | – | – | – |
| O=C(NCc1cn(Cc2cccc(Oc3ccccc3)c2)nn1)c1cccnc1Nc1ccccc1 | – | > 100 µM | – | 33.8 µM | > 100 µM | > 100 µM | – | – | > 100 µM | – | – | – | – | – | 4.54 µM | 3.27 µM | 4.93 µM | 3.94 µM | 2.57 µM |
| CCOc1ncn(-c2ccc(NC(=S)Nc3cccc(O)c3)cc2)n1 | – | > 100 µM | > 100 µM | > 100 µM | > 100 µM | > 100 µM | – | – | > 100 µM | – | – | – | – | – | – | – | – | – | – |
| COC[C@H]1C(=O)NCC(=O)N2NCCC[C@H]2C(=O)N(O)[C@H](C)C(=O)O[C@@H](C(C)C)[C@H](NC(=O)[C@](C)(O)[C@]2(O)CC[C@@H](CC(C)C)[C@H](C)O2)C(=O)N2NCCC[C@@H]2C(=O)N1O | – | 0.0326 µM | – | 0.0232 µM | – | 0.0555 µM | – | – | 0.0221 µM | – | – | – | – | – | – | 0.0174 µM | < 0.01 µM | < 0.0114 µM | 0.0118 µM |
| CO/C(=N\N=C(/C)C(F)(F)F)c1ccncc1 | > 100 µM | > 100 µM | > 100 µM | > 100 µM | – | > 100 µM | – | – | > 100 µM | – | – | – | – | – | – | – | – | – | – |
| CC1(C)CCc2c(cc3c(c2O)CCC(C)(C)O3)O1 | – | > 100 µM | > 100 µM | > 100 µM | – | > 100 µM | – | – | > 100 µM | – | – | – | – | – | – | – | – | – | – |
| C=C1CC2CC[C@@]34C[C@@H]5O[C@@H]6C(O[C@H]7CC[C@H](CC(=O)OC8[C@@H](C)C9OC%10C[C@]%11(C[C@@H]%12O[C@@]%13(C[C@@H](C)[C@@H]%12O%11)C[C@H](C)[C@@H]%11OC%12CC(C(O)CO)OC%12C[C@@H]%11O%13)OC%10CC9O[C@H]8C[C@H]8O[C@@H](CC[C@@H]1O2)C[C@@H](C)C8=C)O[C@@H]7[C@@H]6O3)C5O4 (some centres undefined) | 0.00451 µM | – | – | – | 0.394 µM | – | > 1.48 µM | – | – | – | – | – | < 0.000148 µM | < 0.000148 µM | < 0.000148 µM | – | – | – | – |
| C=C/C(C)=C/[C@H](C)C(=O)C[C@H](O)CC1CC(=O)NC(=O)C1 | > 100 µM | – | – | – | > 100 µM | – | > 93.6 µM | 9.91 µM | > 91.8 µM | > 100 µM | – | – | – | – | – | – | – | – | – |
